In patent publication US6906007B2, “Phenyl-substituted 5,6-dihydropyrone derivatives for use as pesticides and herbicides” (Bayer CropScience AG, priority 2000, dated 2005):

Legend:
Format in all cases: in vivo
[1] = test system: greenhouse red spider mite (Tetranychus urticae); experiment: Tetranychus test (OP-resistant/dip treatment); details: bean plants dipped
Method: Tetranychus Test (OP-Resistant/Dip Treatment)
Solvent: 30 parts by weight of dimethylformamide
Emulsifier: 1 part by weight of alkylaryl polyglycol ether
(§1) To produce a suitable preparation of active compound, 1 part by weight of active compound is mixed with the stated amounts of solvent and emulsifier, and the concentrate is diluted with water to the desired concentration.
Bean plants (Phaseolus vulgaris) which are heavily infested by all stages of the greenhouse red spider mite (Tetranychus urticae) are dipped into a preparation of active compound of the desired concentration.
After the desired period of time, the effect in % is determined. 100% means that all of the spider mites have been killed, 0% means that none of the spider mites has been killed.
In this test, for example, the following compounds of the Preparation Examples show good activity.

[2] = test system: larvae of the mustard beetle (Phaedon cochleariae); experiment: Phaedon larvae test; details: 1000 ppm, cabbage leaves dipped
Method: (§2) Phaedon larvae Test Solvent: 30 parts by weight of dimethylformamide Emulsifier: 1 part by weight of alkylaryl polyglycol ether To produce a suitable preparation of active compound, 1 part by weight of active compound is mixed with the stated amounts of solvent and emulsifier, and the concentrate is diluted with water to the desired concentration. Cabbage leaves (Brassica oleracea) are treated by being dipped into the preparation of active compound of the desired concentration and are populated with larvae of the mustard beetle (Phaedon cochleariae) while the leaves are still moist. After the desired period of time, the kill in % is determined. 100% means that all of the beetle larvae have been killed. 0% means that none of the beetle larvae has been killed. In this test, for example, the following compounds of the Preparation Examples show good activity.

Meloidogyne incognita [3] = experiment: Meloidogyne test (Example A); details: 20 ppm active compound, gall formation on lettuce roots
Method: (§3) Meloidogyne Test Solvent: 30 parts by weight of dimethylformamide Emulsifier: 1 part by weight of alkylaryl polyglycol ether To produce a suitable preparation of active compound, 1 part by weight of active compound is mixed with the stated amounts of solvent and emulsifier, and the concentrate is diluted with water to the desired concentration. Containers are filled with sand, solution of active compound, Meloidogyne incognita egg/larvae suspension and lettuce seeds. The lettuce seeds germinate and the plants develop. On the roots, galls are formed. After the desired period of time, the nematicidal action in % is determined using the formation of galls as a measure. 100% means that no galls have been found; 0% means that the number of galls on the treated plants corresponds to that on the untreated control.

[4] = test system: peach aphid (Myzus persicae); experiment: Myzus test; details: 1000 ppm, cabbage leaves dipped
Method: Myzus Test Solvent: 30 parts by weight of dimethylformamide Emulsifier: 1 part by weight of alkylaryl polyglycol ether To produce a suitable preparation of active compound, 1 part by weight of active compound is mixed with the stated amounts of solvent and emulsifier, and the concentrate is diluted with water to the desired concentration. Cabbage leaves (Brassica oleracea) which are heavily infested by the peach aphid (Myzus persicae) are treated by being dipped into a preparation of active compound of the desired concentration. After the desired period of time, the kill in % is determined. 100% means that all of the aphids have been killed: 0% means that none of the aphids has been killed. In this test, for example, the following compounds of the Preparation Examples show good activity.

Meloidogyne incognita [5] = experiment: Meloidogyne test (Example G); details: 20 ppm; gall formation on lettuce roots
Method: as §3, with “Test Solvent: 8 parts by” for “Test Solvent: 30 parts by”, “of active compound. Meloidogyne incognita” for “of active compound, Meloidogyne incognita”

[6] = test system: caterpillars of the army worm (Spodoptera frugiperda); experiment: Spodoptera frugiperda test; details: 1000 ppm, cabbage leaves dipped
Method: as §2, with “Spodoptera frugiperda” for “Phaedon larvae”, “caterpillars” for “larvae”, “army worm (Spodoptera frugiperda)” for “mustard beetle (Phaedon cochleariae)”, “caterpillars” for “beetle larvae”, “killed; 0%.” for “killed. 0%”

Sphaerotheca fuliginea = experiment: Sphaerotheca test (cucumber)/protective; details: 750 g/ha, protective, evaluation 7 days after inoculation
Method: Sphaerotheca Test (Cucumber)/Protective
Solvent: 48.8 parts by weight of N,N-dimethylformamide
Emulsifier: 1.2 parts by weight of alkylaryl polyglycol ether
as §1
To test for protective activity, young cucumber plants are sprayed with the preparation of active compound at the stated application rate. 1 day after the treatment, the plants are inoculated with a spore suspension of Sphaerotheca fuliginea. The plants are then placed in a greenhouse at 70% relative atmospheric humidity and a temperature of 23° C.
Evaluation is carried out 7 days after the inoculation. 0% means an efficacy which corresponds to that of the control, whereas an efficacy of 100% meais that no infection is observed.

[7] = test system: fruit tree red spider mite (Panonychus ulmi); experiment: Panonychus test; details: 200 ppm, plum trees sprayed
Method: Panonychus Test Solvent: 3 parts by weight of dimethylformamide Emulsifier: 1 part by weight of alkylaryl polyglycol ether To produce a suitable preparation of active compound, 1 part by weight of active compound is mixed with the stated amounts of solvent and emulsifier, and the concentrate is diluted with water to the desired concentration. Plum trees (Prunus domestica), of a height of approximately 30 cm, which are heavily infested by all stages of the fruit tree red spider mite (Panonychus ulmi) are sprayed with a preparation of active compound of the desired concentration. After the desired period of time, the effect in % is determined. 100% means that all of the spider mites have been killed: 0% means that none of the spider mites has been killed.

Compound: Cc1cc(C)c(C2=C(OC(=O)C(C)C)OC(C)(C)C(C)(C)C2=O)c(C)c1 [Ex. I-B-b-16]
- Kill rate in % after 7d ([1]; 100 ppm): 100%

Compound: Cc1cc(-c2ccc(Cl)cc2)cc(C)c1C1=C(O)C(C)(C)C(C)(C)OC1=O [Ex. I-a-1]
- Kill rate in % after 7d [2]: 100%

Compound: Cc1cc(-c2ccc(Cl)cc2)cc(C)c1C1=C(OC(=O)C(C)C)C(C)(C)COC1=O [Ex. I-A-b-11]
- Kill rate in % after 7d [2]: 100%

Compound: Cc1cc(C)c(C2=C(OC(=O)C(C)C)OCC(C)(C)C2=O)c(C)c1 [Ex. I-B-b-17]
- Kill rate in % after 14d (Meloidogyne incognita [3]): 90%
- Kill rate in % after 7d ([1]; 100 ppm): 100%

Compound: Cc1cc(C)c(C2=C(O)C(C)(C)C(C)(C)OC2=O)c(C)c1 [Ex. I-a-7]
- Kill rate in % after 6d [4]: 90%
- Kill rate in % at active compound concentration in ppm (Meloidogyne incognita [5]): 20 ppm = 100%

Compound: Cc1ccc(-c2ccc(Cl)cc2)cc1C1=C(O)C(C)(C)COC1=O [Ex. I-a-5]
- Kill rate in % after 14d (Meloidogyne incognita [3]): 100%
- Kill rate in % after 6d [4]: 95%
- Kill rate in % after 7d [2]: 100%

Compound: Cc1cc(-c2ccc(Cl)cc2)cc(C)c1C1=C(OC(=O)C(C)C)C(C)(C)C(C)(C)OC1=O [Ex. I-A-b-1]
- Kill rate in % after 14d (Meloidogyne incognita [3]): 100%

Compound: Cc1cc(-c2ccc(Cl)cc2)cc(C)c1C1=C(O)C(C)(C)COC1=O [Ex. I-a-13]
- Kill rate in % after 7d [2]: 100%

Compound: Cc1cc(C)c(C2=C(OC(=O)OC(C)C)OCC(C)(C)C2=O)c(C)c1 [Ex. I-B-c-1]
- Kill rate in % after 14d (Meloidogyne incognita [3]): 90%
- Kill rate in % after 7d ([1]; 100 ppm): 100%

Compound: Cc1ccc(-c2ccc(Cl)cc2)cc1C1=C(OC(=O)C(C)C)C(C)(C)C(C)(C)OC1=O [Ex. I-A-b-10]
- Kill rate in % after 14d (Meloidogyne incognita [3]): 100%
- Kill rate in % after 7d [2]: 100%
- Kill rate in % after 7d [6]: 100%

Compound: COC1OC(=O)C(c2ccc(Cl)cc2C)=C(OC(C)=O)C1(C)C (centres unmarked) [Ex. I-A-b-3]
- Efficacy in % (Sphaerotheca fuliginea): 80%

Compound: Cc1ccc(-c2ccc(Cl)cc2)cc1C1=C(OC(=O)OC(C)C)C(C)(C)C(C)(C)OC1=O [Ex. I-A-c-3]
- Kill rate in % after 7d [2]: 90%
- Kill rate in % after 7d ([1]; 0.01 ppm): 100%

Compound: Cc1ccc(-c2ccc(Cl)cc2)cc1C1=C(O)C(C)(C)C(C)(C)OC1=O [Ex. I-a-6]
- Kill rate in % after 6d [4]: 95%
- Kill rate in % after 14d [7]: 100%
- Kill rate in % after 7d [2]: 100%
- Kill rate in % after 7d [6]: 100%
- Kill rate in % after 7d ([1]; 100 ppm): 100%

Compound: COC1OC(OC(C)=O)=C(c2ccc(Cl)cc2C)C(=O)C1(C)C (centres unmarked) [Ex. I-B-b-13]
- Efficacy in % (Sphaerotheca fuliginea): 70%
